# Source: PubChem BioAssay AID192 (DTP/NCI, 2004)
# Several values for one entry are separate records, joined by “and”; a condition that tells them apart may be missing. Equal values may be shown once. Toxic doses and inconclusive results are not listed.
# Tested on: BDF1 mice, B16 melanoma ip, median survival T/C
# Assay: NCI In Vivo Anticancer Drug Screen. Data for tumor model B16 Melanoma (intraperitoneal) in B6D2F1 (BDF1) mice
# Details: endpoint: median survival time, higher = longer survival
# In short: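 Read-out: survival or tumor size, given as treated/control ratio. Controls received vehicle only; animals bore transplantable tumors.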
# [1] = dose: 2.0 mg/kg/injection, schedule: Q01DX009 (ip), vehicle: saline
# [2] = dose: 50.0 mg/kg/injection, schedule: Q01DX009 (ip), vehicle: saline
# [3] = dose: 25.0 mg/kg/injection, schedule: Q01DX009 (ip), vehicle: Klucel (hydroxypropylcellulose) (HPC)
# [4] = dose: 50.0 mg/kg/injection, schedule: Q01DX009 (ip), vehicle: Klucel (hydroxypropylcellulose) (HPC)
# [5] = dose: 100.0 mg/kg/injection, schedule: Q01DX009 (ip), vehicle: Klucel (hydroxypropylcellulose) (HPC)
# [6] = dose: 200.0 mg/kg/injection, schedule: Q01DX009 (ip), vehicle: Klucel (hydroxypropylcellulose) (HPC)
# [7] = dose: 0.25 mg/kg/injection, schedule: Q01DX009 (ip), vehicle: saline with Tween-80
# [8] = dose: 12.5 mg/kg/injection, schedule: Q01DX009 (ip), vehicle: Klucel (hydroxypropylcellulose) (HPC)
# [9] = dose: 400.0 mg/kg/injection, schedule: Q01DX009 (ip), vehicle: Klucel (hydroxypropylcellulose) (HPC)
compound,measurement,setting,value
O=C(O)c1[nH]c(=O)[nH]c(=O)c1F,T/C,[1],92 % of control
same,T/C,"dose: 4.0 mg/kg/injection, schedule: Q01DX009 (ip), vehicle: saline",95 % of control
CN1CC[C@]23c4c5ccc(O)c4O[C@H]2C(=O)CC[C@H]3[C@H]1C5,T/C,"dose: 12.5 mg/kg/injection, schedule: Q01DX005 (iv), vehicle: saline",86 % of control
same,T/C,"dose: 12.5 mg/kg/injection, schedule: Q01DX009 (ip), vehicle: saline",94 % of control
same,T/C,"dose: 25.0 mg/kg/injection, schedule: Q01DX005 (iv), vehicle: saline",111 % of control
same,T/C,"dose: 25.0 mg/kg/injection, schedule: Q01DX009 (ip), vehicle: saline",98 % of control
same,T/C,"dose: 50.0 mg/kg/injection, schedule: Q01DX005 (iv), vehicle: saline",95 % of control
same,T/C,[2],100 % of control
Cc1ccc(NC(=S)NN)cc1C,T/C,[3],100 % of control
same,T/C,[4],96 % of control
same,T/C,[5],96 % of control
CCN(CC)CCN(C)C,T/C,[2],118 % of control
same,T/C,"dose: 100.0 mg/kg/injection, schedule: Q01DX009 (ip), vehicle: saline",112 % of control
same,T/C,"dose: 200.0 mg/kg/injection, schedule: Q01DX009 (ip), vehicle: saline",103 % of control
C=CCN(C(=O)OCC)c1ccccc1,T/C,[5],100 % of control
same,T/C,[6],97 % of control
COC(C(=O)C(O)C(C)O)C1Cc2cc3cc(OC4CC(OC(C)=O)C(OC5CC(O)C(OC)C(C)O5)C(C)O4)cc(O)c3c(O)c2C(=O)C1OC1CC(OC2CC(OC3CC(C)(O)C(OC(=O)C(C)C)C(C)O3)C(O)C(C)O2)C(O)C(C)O1 (stereo not drawn),T/C,[7],158 % of control
same,T/C,"dose: 0.5 mg/kg/injection, schedule: Q01DX009 (ip), vehicle: saline",154 % of control and 170 % of control
same,T/C,"dose: 1.0 mg/kg/injection, schedule: Q01DX009 (ip), vehicle: saline",173 % of control and 183 % of control
same,T/C,[1],173 % of control and 178 % of control
CC(C)[C@]12O[C@H]1[C@@H]1O[C@]13[C@]1(O[C@H]1C[C@H]1C4=C(CC[C@@]13C)C(=O)OC4)[C@@H]2O,T/C,"dose: 8.0 micrograms/kg/injection, schedule: Q01DX009 (ip), vehicle: saline + alcohol",114 % of control
same,T/C,"dose: 12.5 micrograms/kg/injection, schedule: Q01DX009 (ip), vehicle: saline with Tween-80",119 % of control
same,T/C,"dose: 16.0 micrograms/kg/injection, schedule: Q01DX009 (ip), vehicle: saline + alcohol",109 % of control
same,T/C,"dose: 25.0 micrograms/kg/injection, schedule: Q01DX009 (ip), vehicle: saline with Tween-80",112 % of control
same,T/C,"dose: 32.0 micrograms/kg/injection, schedule: Q01DX009 (ip), vehicle: saline + alcohol",104 % of control
same,T/C,"dose: 50.0 micrograms/kg/injection, schedule: Q01DX009 (ip), vehicle: saline with Tween-80",124 % of control
same,T/C,"dose: 64.0 micrograms/kg/injection, schedule: Q01DX009 (ip), vehicle: saline + alcohol",104 % of control
same,T/C,"dose: 100.0 micrograms/kg/injection, schedule: Q01DX009 (ip), vehicle: saline with Tween-80",107 % of control
same,T/C,"dose: 200.0 micrograms/kg/injection, schedule: Q01DX009 (ip), vehicle: saline with Tween-80",122 % of control
same,T/C,"dose: 400.0 micrograms/kg/injection, schedule: Q01DX009 (ip), vehicle: saline with Tween-80",100 % of control
[Cl][Pt+2][Cl].[NH-]c1ccc(C(=O)c2ccccc2)cc1[NH-],T/C,"dose: 20.0 mg/kg/injection, schedule: Q01DX009 (ip), vehicle: saline with Tween-80",108 % of control
same,T/C,"dose: 40.0 mg/kg/injection, schedule: Q01DX009 (ip), vehicle: saline with Tween-80",113 % of control
same,T/C,"dose: 80.0 mg/kg/injection, schedule: Q01DX009 (ip), vehicle: saline with Tween-80",118 % of control
same,T/C,"dose: 160.0 mg/kg/injection, schedule: Q01DX009 (ip), vehicle: saline with Tween-80",114 % of control
same,T/C,"dose: 320.0 mg/kg/injection, schedule: Q01DX009 (ip), vehicle: saline with Tween-80",113 % of control
CCO/C([O-])=C/[P+](c1ccccc1)(c1ccccc1)c1ccccc1,T/C,[8],103 % of control
same,T/C,[3],103 % of control
same,T/C,[4],100 % of control
Cc1ccc(NC(=O)c2cccc(C(=O)Nc3ccc(C)cc3C)c2)c(C)c1,T/C,[8],115 % of control
same,T/C,[3],96 % of control
same,T/C,[4],102 % of control
COc1ccc(OC(=O)Nc2ccccc2OC)cc1,T/C,[5],100 % of control
same,T/C,[6],93 % of control
same,T/C,[9],93 % of control
Cc1nc(C(=O)O)c(C)c(=O)[nH]1,T/C,"dose: 1.56 mg/kg/injection, schedule: Q01DX009 (ip), vehicle: water",100 % of control
same,T/C,"dose: 3.13 mg/kg/injection, schedule: Q01DX009 (ip), vehicle: water",96 % of control
same,T/C,"dose: 6.25 mg/kg/injection, schedule: Q01DX009 (ip), vehicle: water",105 % of control
same,T/C,"dose: 12.5 mg/kg/injection, schedule: Q01DX009 (ip), vehicle: water",100 % of control
O=C1OCCN1/N=C/c1ccc([N+](=O)[O-])o1,T/C,[5],100 % of control
COc1ccccc1N1C(=O)CSC1=S,T/C,[8],95 % of control
same,T/C,[3],105 % of control
same,T/C,[4],87 % of control
same,T/C,[5],105 % of control
CCOC(=O)C(N)C[S][Sn]([CH3])([CH3])[Cl] (stereo not drawn),T/C,"dose: 6.25 mg/kg/injection, schedule: Q01DX009 (ip), vehicle: saline with Tween-80",105 % of control
same,T/C,"dose: 12.5 mg/kg/injection, schedule: Q01DX009 (ip), vehicle: saline with Tween-80",88 % of control
same,T/C,"dose: 25.0 mg/kg/injection, schedule: Q01DX009 (ip), vehicle: saline with Tween-80",100 % of control
N#Cc1c(F)c(F)c(C#N)c(F)c1F,T/C,"dose: 1.25 mg/kg/injection, schedule: Q01DX009 (ip), vehicle: saline with Tween-80",90 % of control
same,T/C,"dose: 2.5 mg/kg/injection, schedule: Q01DX009 (ip), vehicle: saline with Tween-80",90 % of control
N=c1c2ncn(Cc3cccc(C(F)(F)F)c3)c2ncn1O,T/C,"dose: 0.09 mg/kg/injection, schedule: Q01DX009 (ip), vehicle: Klucel (hydroxypropylcellulose) (HPC)",93 % of control
same,T/C,"dose: 0.19 mg/kg/injection, schedule: Q01DX009 (ip), vehicle: Klucel (hydroxypropylcellulose) (HPC)",90 % of control
same,T/C,"dose: 0.25 mg/kg/injection, schedule: Q04DX003 (ip), vehicle: Klucel (hydroxypropylcellulose) (HPC)",97 % of control
same,T/C,"dose: 0.39 mg/kg/injection, schedule: Q01DX009 (ip), vehicle: Klucel (hydroxypropylcellulose) (HPC)",93 % of control
same,T/C,"dose: 0.5 mg/kg/injection, schedule: Q04DX003 (ip), vehicle: Klucel (hydroxypropylcellulose) (HPC)",95 % of control
same,T/C,"dose: 0.78 mg/kg/injection, schedule: Q01DX009 (ip), vehicle: Klucel (hydroxypropylcellulose) (HPC)",91 % of control
same,T/C,"dose: 1.0 mg/kg/injection, schedule: Q04DX003 (ip), vehicle: Klucel (hydroxypropylcellulose) (HPC)",92 % of control
same,T/C,"dose: 1.4 mg/kg/injection, schedule: Q04DX003 (ip), vehicle: Klucel (hydroxypropylcellulose) (HPC)",107 % of control
same,T/C,"dose: 1.56 mg/kg/injection, schedule: Q01DX009 (ip), vehicle: Klucel (hydroxypropylcellulose) (HPC)",88 % of control
same,T/C,"dose: 2.2 mg/kg/injection, schedule: Q04DX003 (ip), vehicle: Klucel (hydroxypropylcellulose) (HPC)",107 % of control
same,T/C,"dose: 3.3 mg/kg/injection, schedule: Q04DX003 (ip), vehicle: Klucel (hydroxypropylcellulose) (HPC)",95 % of control
COc1ccc(C(=O)c2ccc(C)cc2)cc1,T/C,[5],97 % of control
same,T/C,"dose: 100.0 mg/kg/injection, schedule: Q04DX003 (ip), vehicle: Klucel (hydroxypropylcellulose) (HPC)",88 % of control
same,T/C,[6],93 % of control
same,T/C,"dose: 200.0 mg/kg/injection, schedule: Q04DX003 (ip), vehicle: Klucel (hydroxypropylcellulose) (HPC)",95 % of control
same,T/C,[9],93 % of control
same,T/C,"dose: 400.0 mg/kg/injection, schedule: Q04DX003 (ip), vehicle: Klucel (hydroxypropylcellulose) (HPC)",102 % of control
COC(=O)C[C@](O)(CCCC(C)(C)O)C(=O)O[C@@H]1C(OC)=C[C@]23CCCN2CCc2cc4c(cc2[C@H]13)OCO4,T/C,"dose: 0.13 mg/kg/injection, schedule: Q01DX009 (ip), vehicle: saline sonified",107 % of control
same,T/C,"dose: 0.25 mg/kg/injection, schedule: Q01DX009 (ip), vehicle: saline sonified",120 % of control
same,T/C,[7],114 % of control
same,T/C,"dose: 0.98 mg/kg/injection, schedule: Q04DX003 (ip), vehicle: saline",121 % of control
same,T/C,"dose: 1.0 mg/kg/injection, schedule: Q01DX009 (ip), vehicle: saline with Tween-80",111 % of control
same,T/C,"dose: 1.4 mg/kg/injection, schedule: Q04DX003 (ip), vehicle: saline",117 % of control
same,T/C,"dose: 2.0 mg/kg/injection, schedule: Q04DX003 (ip), vehicle: saline",118 % of control
same,T/C,"dose: 2.86 mg/kg/injection, schedule: Q04DX003 (ip), vehicle: saline",117 % of control
COc1cc2c(cc1OC)C(CN)C2 (stereo not drawn),T/C,[4],94 % of control
same,T/C,[5],97 % of control
BrCCCC1CCCCC1,T/C,[4],92 % of control
same,T/C,[5],100 % of control
same,T/C,[6],92 % of control
